This note sets out measurements from EP0533344B1, “Methanoanthracenes as dopamine antagonists” (ZENECA LIMITED, priority 1991, dated 1993).

As a reminder, the IC50 is the concentration that gives 50% inhibition.

Where two headings read alike, the source gives them in different places.

The target of assay [1] is T1, dopamine (DA) D-2 receptor subtype (Rattus norvegicus, UniProt P61169).
T1 construct: Specifically, rat striatal membranes were used; from tissue; host or cells: rat striatum (membranes)
The experiment in a line: Test A: dopamine D-2 receptor binding assay, displacement of [3H]-spiperone. The source says: (§1) The compounds of Formula I are antagonists of dopamine D-2 receptors, and as such are predicted to be useful as antipsychotic drugs. D-2 antagonism can be shown by standard tests such as antagonism of [^3H]-spiperone binding (Test A), and/or antagonism of apomorphine-induced climbing and apomorphine- induced disruption of swimming (Test B).
The receptor binding assay used to measure affinities of various compounds for the dopamine (DA) D-2 receptor subtype was that described by Saller and Salama in J Pharmacol Exp Ther 236, page 714, 1986.
Specifically, rat striatal membranes were used. Tissue membranes were prepared and washed once in 50 volumes of the appropriate Tris HCl buffer. For the D-2 receptor binding assay, striatal membranes were suspended to a final concentration of 8 mg/ml in 50 mM Tris HCl with 40 nM ketanserin, pH 7.7. Nonspecific binding to D-2 receptors was measured in the presence of 1.0 µM (+)-butaclamol. IC50s (drug concentration which produced a 50% displacement) for the displacement of 0.5 nM [^3H] spiperone were determined using at least five concentrations of each drug in triplicate. One-half milliliter of membrane suspension was incubated with the compound of interest or vehicle or nonspecific drug, ligand and appropriate Tris HCl buffer. […] The amount of drug bound to the membranes was assessed using liquid scintillation counting techniques. […]

Assay [2] has as its system Female Swiss-Webster mice. The experiment in a line: Test B: antagonism of apomorphine-induced climbing and apomorphine-induced disruption of swimming. The format is in vivo. The conditions noted are these: Mus musculus, po, read-out: minimum effective dose. Here is the method: as §1
Female Swiss-Webster mice weighing approximately 20 g were deprived of food for approximately 24 h and then dosed orally with various doses of either the vehicle or test agent over a range of doses (N = 20 mice per treatment group). Thirty minutes later they were dosed with apomorphine HCl at 1.25 mg/kg, sc, and placed into climbing cages. The climbing cages were 9 cm wide, 15 cm deep and 30 cm high. One wall had 27 horizontal rungs spaced 1 cm apart. Thirteen minutes after apomorphine each mouse was observed continuously for 1 min and the highest and lowest rung reached by its front paws was recorded. […] (The highest and lowest scores were 27 and 0, respectively.) Immediately after the 1-min climbing observation period each mouse was placed into a circular swimming tank for 2 min and the number of swims was counted. […] A "swim" was scored each time a mouse swam from one mark to the other. The mice were observed through overhead mirrors and the number of 180 degree swims was recorded for each mouse. […]

T1 sequence (P61169 whole entry): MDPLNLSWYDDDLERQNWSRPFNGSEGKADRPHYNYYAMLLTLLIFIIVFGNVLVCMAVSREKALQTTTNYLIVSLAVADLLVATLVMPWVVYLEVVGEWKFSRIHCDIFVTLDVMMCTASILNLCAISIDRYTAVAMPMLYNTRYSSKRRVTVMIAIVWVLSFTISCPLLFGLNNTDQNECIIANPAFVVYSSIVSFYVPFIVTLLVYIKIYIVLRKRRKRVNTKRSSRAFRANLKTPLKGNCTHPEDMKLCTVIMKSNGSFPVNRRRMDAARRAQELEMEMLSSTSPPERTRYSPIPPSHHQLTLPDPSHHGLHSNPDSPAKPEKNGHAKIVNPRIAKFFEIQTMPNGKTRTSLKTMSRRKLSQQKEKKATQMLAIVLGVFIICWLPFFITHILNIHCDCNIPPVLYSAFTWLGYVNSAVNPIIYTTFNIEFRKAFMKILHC

Regarding `OC1(c2cccnc2)CCN(CC23CC(c4ccccc42)c2ccccc23)CC1` [Example 5, 1-(9,10-Dihydro-9,10-methanoanthracen-9-ylmethyl)-4-(3-pyridyl)piperidin-4-ol], in assay [1], the IC50 stood at 12 nM. Moreover, the minimal effective dose in assay [2] was 20 mg/kg.

As for `CC(C)(C)C1(O)CCN(CC23CC(c4ccccc42)c2ccc(Cl)cc23)CC1` (stereo not shown) [Example 49, 1-(2-Chloro-9,10-dihydro-9,10-methanoanthracen-9-ylmethyl)-4-(1,1-dimethylethyl)piperidin-4-ol], in assay [1] (displacement of 0.5 nM [3H] spiperone, rat striatal membranes, 37°C for 15 min, typical result, read-out: IC50), the IC50 is 3 nM. Further, the minimal effective dose in assay [2] (dosed orally 30 min before apomorphine HCl 1.25 mg/kg sc, decreased climbing score with increased swimming score, typical result) came to 1.3 mg/kg.
